The results in this text go back to article PMC1199608 (Cancer Cell International, 2005).

A word on the IC50: it is the concentration at which inhibition is half-maximal. A high value points to lower potency.

The subject of series [1] is Jurkat cells. As to the kind of experiment: Apoptosis by electron microscopy. The conditions noted are these: 4-hr incubation, 62.5 μM Pep27anal2, 100 μM etoposide, 200–400 cells counted per group. Type of series: cell-based. As to the method: Jurkat cells were harvested and immediately fixed in phosphate-buffered glutaraldehyde solution (pH 7.2) for 2 hrs and then fixed in 1% buffered osmium tetroxide for 2 hrs at 4°C. After processing through a graded series of ethanol and propylene oxide, the cells were embedded in Epon. A semi-thin (1 μm) section was cut and stained with toluidine blue for the ultrastructural examination. Ultra-thin (60–90 nm) sections were also prepared from the Epon block above using an ultramicrotome (LKB-V, Sweden), stained with uranyl acetate and lead citrate, and examined under a Hitachi H-7600 electron microscope (Hitachi, Kyoto, Japan). Apoptosis detection was done by taking photographs (×1,000) of the entire field of each ultra-thin sectioned sample. The degree of apoptosis (apoptosis index) was defined as the number of apoptotic cells expressed as a percentage of the total cell count.

Series [2] relates to Jurkat cells. As to the kind of experiment: Apoptosis and membrane integrity by flow cytometry (annexin V-FITC / PI). As to conditions: 4 hr, 12.5 μM or 63 μM Pep27anal2, 12.5 μM mellitin, 100 μM etoposide. Type of series: cell-based. As to the method:
Annexin V binding was assessed by flow cytometry, and cell staining was evaluated using FITC-labeled annexin V (green fluorescence), and propidium iodide (PI) ([…]) simultaneously. This test was able to discriminate between intact cells (FITC-/PI-), apoptotic cells (FITC+/PI-) and necrotic cells (FITC+/PI+) (Vermes et al., 1995). Jurkat cells (10^5/ml) were exposed to etoposide (100 μM), mellitin (12.5 μM) and Pep27anal2 (12.5 μM and 62.5 μM) for 4 hr. Cells were washed with PBS, resuspended in 400 μl of binding buffer (10 mM Hepes/NaOH, pH 7.4, 140 mM NaCl, 2.5.mM CaCl2), and incubated with 10 μl of annexin V-FITC (MedSystems Diagnostics, GmbH, […]) for 10 min at room temperature. After incubation, cells were washed with binding buffer and exposed to 1 μg of PI in a final volume of 400 μl. FITC and PI fluorescences were determined using a flow cytometer (Becton Dickinson, Franklin Lakes, FL, USA)
In the present study, Jurkat cells were treated with 100 μM of etoposide, 12.5 μM of mellitin or 12.5 μM or 63 μM of Pep27anal2 for 4 hr. Apoptosis and membrane integrity were then determined using annexin V and propidium iodide, respectively, as described in "Materials and methods". […] Dead cells appear first in the lower right quadrant (apoptosis), where death was due to the externalization of PS (detected with annexin V-FITC).
For orientation: In flow cytometry, cells or beads pass a laser one at a time.

Series [3] has as its system HL-60 acute promyelocytic leukemia cell line. As to conditions: MTT assay, from semilogarithmic dose-response curves, at least in duplicate. The method, then:
(§1) OCI-AML-2 (AML-2) cell line was obtained from the Ontario Cancer Institute (Toronto, Canada), and Jurkart and HL-60 cell lines from the American Type Culture Collection (ATCC, USA). These three cell lines were cultured at 37°C in a 5% CO2 atmosphere using α-MEM medium (GibcoBRL, Gland Island, NY, USA) containing 10% heat-inactivated fetal bovine serum (FBS, Sigma, ST. Louis, MO, USA). MCF-7 and NIH/3T3 cell lines from ATCC and SNU-601 cell line from the Korean Cancer Cell Bank (Seoul, Korea) were cultured under the same conditions but using RPMI-1640 medium (GibcoBRL, Gland Island, NY, USA) containing 10% heat-inactivated FBS. Cells were maintained in suspension or as monolayer cultures, and subcultured.
(§2) The in vitro cytotoxicity of the Pep27 analogues produced was measured by MTT [3-(4,5-dimethylthiazol-2-yl)-2,5-diphenyl tetrazolium bromide, Sigma, ST. Louis, USA] assay, as described by. IC50 values were determined directly from semilogarithmic dose-response curves. Experiments were carried out at least in duplicate.
(§3) To evaluate the anticancer activities of the Pep27 analogues, different concentrations of these peptides were administered to various cancer cell lines, and cytotoxicities were then determined by MTT assay. In this study, we used both anchorage-dependent and independent cancer cell lines. These included AML-2 an acute myelogenous leukemia cell line, HL-60 an acute promyelocytic leukemia cell line, Jurkat a T cell leukemia cell line, SNU-601 a gastric cancer cell line and MCF-7 a breast cancer cell line.

Series [4] deals with MCF-7 breast cancer cell line. As to conditions: MTT assay, from semilogarithmic dose-response curves, at least in duplicate. The method, then: as §1, §2, §3
Series [5] has as its system AML-2 acute myelogenous leukemia cell line. The conditions noted are these: MTT assay, from semilogarithmic dose-response curves, at least in duplicate. The method, then:
as §1, §2, §3
(Tetrazolium dyes change colour on reduction, which living cells bring about.)

Series [6] relates to SNU-601 gastric cancer cell line. The conditions noted are these: MTT assay, from semilogarithmic dose-response curves, at least in duplicate. The method, then:
as §1, §2, §3

Series [7] has as its system Jurkat T cell leukemia cell line. The conditions noted are these: MTT assay, from semilogarithmic dose-response curves, at least in duplicate. As to the method:
as §1, §2, §3

For series [8], the system named is human erythrocytes. The conditions noted are these: 4% human erythrocytes in PBS pH 7.0, 1 h at 37°C, absorbance 414 nm, 100% = 0.1% Triton-100. As to the method: Peptide hemolytic activities were measured as described by, by determining hemoglobin release by 4% suspensions of fresh human erythrocytes at 414 nm. Briefly, human erythrocyte cells were centrifuged and washed three times with phosphate-buffered saline (PBS: 35 mM phosphate buffer/0.15 M NaCl, pH 7.0). […] of human red blood cells suspended 8% (v/v) in PBS were the inoculated into 96-well plates. […] of the peptide solution, Pep27 or its analogues, was then added to each well. The plates were incubated for 1 h at 37°C, and centrifuged at 150 g for 5 min. […] aliquots of the supernatant obtained were transferred to flat-bottom 96-microtiter plates. Hemolysis was determined by measuring absorbance at 414 nm with an ELISA plate reader (Molecular Devices Emax, Sunnyvale, CA, USA). Hemolysis rates of 0% or 100% were determined as the same way with PBS and 0.1% Triton-100, respectively. Hemolysis percent was calculated using the following equation: % hemolysis = [(Abs414nm in the peptide solution - Abs414nm in PBS)/(Abs414nm in 0.1% Triton-100 - Abs414nm in PBS)] × 100.

For series [9], the system named is Jurkat cells. As to the kind of experiment: Cytochrome c release from mitochondria to cytosol (Western blotting). Type of series: cell-based. As to conditions: Jurkat cells (5 × 10^5/ml), 62.5 μM, 4 h. The method, then:
Cytochrome c immunoblotting was performed using a slight modification of a previously described method. Jurkat cells were collected by centrifugation at 200 g for 5 min at 4°C. The cells were then washed twice with ice-cold PBS, pH 7.4, and centrifuged at 200 g for 5 min. The cell pellet obtained was then resuspended in 600 μl of extraction buffer, containing 20 mM Hepes-KOH (pH 7.5), 10 mM KCl, 250 mM sucrose, 1 mM EGTA, 1 mM EDTA, 1.5 mM MgCl2, 1 mM dithiothreitol and 0.1 mM phenylmethylsulfonyl fluoride.
After incubation for 30 min on ice, the cells were homogenized (20 strokes), spun at 14,000 g for 15 min, supernatants were separated from the mitochondrial fraction, and both were stored at -70°C, until required for gel electrophoresis. The mitosol fraction was obtained by adding 0.1% SDS. […]
Cytochrome c is a well-characterized mitochondrial protein and is involved in cellular energy metabolism. […] After these incubations, cytochrome c in the cytosol fraction, obtained by 14,000 g centrifugation for 15 min, and in the mitosol, obtained by adding 0.1% SDS to the mitochondrial fraction, was determined by Western blotting.

“Also recorded” adds a separate entry of the source. Like-named read-outs stand apart in the source and are kept apart here. No end group written: not given here.

For the compound `COc1cc([C@@H]2c3cc4c(cc3[C@@H](O[C@@H]3O[C@@H]5CO[C@@H](C)O[C@H]5[C@H](O)[C@H]3O)[C@H]3COC(=O)[C@H]23)OCO4)cc(OC)c1O` [Etoposide, etoposide, reference compound], the “apoptosis (apoptotic cells by electron microscopy)” value in series [1] is listed as “Apoptotic cells were more frequent than in the control group”.
Consider `CC[C@H](C)[C@H](NC(=O)CN)C(=O)NCC(=O)N[C@@H](C)C(=O)N[C@H](C(=O)N[C@@H](CC(C)C)C(=O)N[C@@H](CCCCN)C(=O)N[C@H](C(=O)N[C@@H](CC(C)C)C(=O)N[C@H](C(=O)N[C@H](C(=O)NCC(=O)N[C@@H](CC(C)C)C(=O)N1CCC[C@H]1C(=O)N[C@@H](C)C(=O)N[C@@H](CC(C)C)C(=O)N[C@H](C(=O)N[C@@H](CO)C(=O)N[C@@H](Cc1c[nH]c2ccccc12)C(=O)N[C@H](C(=O)N[C@@H](CCCCN)C(=O)N[C@@H](CCCNC(=N)N)C(=O)N[C@@H](CCCCN)C(=O)N[C@@H](CCCNC(=N)N)C(=O)N[C@@H](CCC(N)=O)C(=O)N[C@@H](CCC(N)=O)C(N)=O)[C@@H](C)CC)[C@@H](C)CC)[C@@H](C)O)[C@@H](C)O)C(C)C)C(C)C` [Mellitin, reference compound], for which the “annexin V-FITC staining (apoptosis) and PI staining (membrane integrity)” value in series [2] is “increased the distribution of PI staining without an increase of annexin V-FITC staining”.
Turning to “MRKEFHNVLSSGQLLADKRPARDYNRK-NH2 [Pep27, reference compound]”, the IC50 in series [3], in series [4], in [5], in [6] and in [7] was over 70 µM each time. Also, the “% Hemolysis” value in series [8] (0.19 μM peptide), in series [8] (0.39 μM peptide), in [8] (0.78 μM peptide), in [8] (1.56 μM peptide), in series [8] (3.12 μM peptide) and in [8] (6.25 μM peptide) was 0% each time. Further, the “% Hemolysis” value in [8] (12.5 μM peptide) is listed as 0%.
In the case of “MWKEFHNVLSSGQLLADKRWARWYNRW-NH2 [Pep27anal4]”, the IC50 came to 51 µM in series [3]; 29 µM in series [4]; 50 µM in [5]; 37 µM in [6]; 46 µM in series [7]. The “% Hemolysis” value in series [8] (0.19 μM peptide), in series [8] (0.39 μM peptide), in [8] (0.78 μM peptide), in series [8] (1.56 μM peptide), in series [8] (3.12 μM peptide) and in series [8] (6.25 μM peptide) was 0% in each case. For the same compound, in [8] (12.5 μM peptide), the “% Hemolysis” value amounted to 0%.
Turning to “MWKWFHNVLSSGQLLADKWWAWWYNWW-NH2 [Pep27anal5]”, the IC50 in series [3], in series [4], in series [5], in series [6] and in [7] was over 70 µM in each case. Further, the “% Hemolysis” value in series [8] (0.19 μM peptide), in series [8] (0.39 μM peptide), in [8] (0.78 μM peptide), in [8] (1.56 μM peptide), in series [8] (3.12 μM peptide) and in series [8] (6.25 μM peptide) was 0% throughout. Also, the “% Hemolysis” value in [8] (12.5 μM peptide) worked out at 0%.
Turning to “MWKWFHNVLSWWWLLADKRPARDYNRK-NH2 [Pep27anal2]”, the “apoptosis (apoptotic cells by electron microscopy)” value in series [1] is reported as “Apoptotic cells were most frequent in this group; also recorded: induced more apoptosis than 100 μM of etoposide”. In [2], the “annexin V-FITC staining (apoptosis) and PI staining (membrane integrity)” value is recorded as “caused a higher level of annexin V-FITC staining with a little increase of PI staining than etoposide”. The “cytochrome c release from mitochondria into the cytosol” value in series [9] was “did not induce cytochrome c release”.
